The target of test [1] is Plasma Kallikrein (Homo sapiens (Human), UniProt P03952). Briefly: Determination of related protease inhibition: Plasma Kallikrein (fluorogenic substrate at Km). The format is biochemical. Conditions: 25° C., read-out: IC50 (human PKal). As for the experimental part:
Determination of Related Protease Inhibition
In vitro inhibition of related proteases was determined using an ([…] assay based on standard literature methods (see e.g. Shori et al., Biochem. Pharmacol., 1992, 43, 1209; Bouckaert et al., European Journal of Medicinal Chemistry 110 (2016) 181). Human serine protease enzymes Plasma Kallikrein, KLK1, FXa, Plasmin, Thrombin and Trypsin were assayed for enzymatic activity using an appropriate fluorogenic substrate at Km concentration, FXIa at fixed substrate concentration of 100 μM, and various concentrations of the test compound. Protease activity was measured by monitoring the accumulation of liberated fluorescence from the substrate over […]. The linear rate of fluorescence increase per minute was expressed as percentage (%) activity. IC50 values were calculated as the concentration of inhibitor giving 50% inhibition of the uninhibited enzyme activity (100%).

Test [2] concerns the target Human Factor XIIa (Homo sapiens (Human), UniProt P00748). Briefly: Determination of FXIIa inhibition (fluorogenic substrate H-DPro-Phe-Arg-AFC, IC50 assay). Conditions: substrate H-DPro-Phe-Arg-AFC at Km, 25° C.; class scale A-G. The format is biochemical. An outline of the steps: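 Human FXIIa incubated at 25° C with fluorogenic substrate H-DPro-Phe-Arg-AFC at its Km concentration and varying compound concentrations. Fluorescence release monitored over 5 min at 25° C; linear rate expressed as % of uninhibited activity to derive IC50.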

Here are results for 24 compounds from US20240059691A1 (KALVISTA PHARMACEUTICALS LIMITED, priority 2020, published 2024).

Plasma Kallikrein, sequence (P03952 391-638): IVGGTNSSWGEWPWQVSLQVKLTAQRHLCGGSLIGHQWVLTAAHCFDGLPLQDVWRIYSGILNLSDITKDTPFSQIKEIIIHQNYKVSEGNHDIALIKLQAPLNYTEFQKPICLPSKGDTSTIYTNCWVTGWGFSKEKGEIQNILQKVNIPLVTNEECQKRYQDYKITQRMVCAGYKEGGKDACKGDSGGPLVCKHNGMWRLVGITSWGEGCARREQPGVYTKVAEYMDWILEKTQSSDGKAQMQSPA
Plasma Kallikrein, sequence (P03952 20-390 partner): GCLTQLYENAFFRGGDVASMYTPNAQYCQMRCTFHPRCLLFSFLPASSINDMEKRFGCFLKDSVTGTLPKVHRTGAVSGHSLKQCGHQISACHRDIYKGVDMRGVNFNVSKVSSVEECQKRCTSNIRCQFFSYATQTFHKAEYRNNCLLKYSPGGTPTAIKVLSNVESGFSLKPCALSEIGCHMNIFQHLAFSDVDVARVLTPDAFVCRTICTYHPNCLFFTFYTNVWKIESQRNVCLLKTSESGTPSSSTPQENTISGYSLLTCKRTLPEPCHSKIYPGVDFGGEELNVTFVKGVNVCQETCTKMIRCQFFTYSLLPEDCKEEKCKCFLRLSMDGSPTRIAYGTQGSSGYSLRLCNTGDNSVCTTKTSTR
Human Factor XIIa, sequence (P00748 373-615): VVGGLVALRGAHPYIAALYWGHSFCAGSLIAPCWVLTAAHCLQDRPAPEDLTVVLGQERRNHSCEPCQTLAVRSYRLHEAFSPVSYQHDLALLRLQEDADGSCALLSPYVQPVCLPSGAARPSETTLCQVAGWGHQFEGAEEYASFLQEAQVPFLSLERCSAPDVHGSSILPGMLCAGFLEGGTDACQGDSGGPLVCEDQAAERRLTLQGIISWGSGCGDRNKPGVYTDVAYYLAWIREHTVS

For orientation: IC50 means the concentration that gives 50% inhibition. For the compound `CN1CCC(CNc2ccc(CNc3cc4ccnc(N)c4cn3)cn2)CC1` [Example 1196, N6-((6-(((1-methylpiperidin-4-yl)methyl)amino)pyridin-3-yl)methyl)-2,7-naphthyridine-1,6-diamine], the IC50 in test [1] fell in the range of 3 to 10 µM; in test [2] it was 1 to 3 µM.

On to `Nc1ncc(F)c2cc(NCc3ccnc(OCC4CCn5ccnc5C4)c3)ccc12` (stereo not drawn) [Example 4307, 4-fluoro-6-N-[(2-{5H,6H,7H,8H-imidazo[1,2-a]pyridin-7-ylmethoxy}pyridin-4-yl)methyl]isoquinoline-1,6-diamine], for which the half-inhibitory concentration (IC50) is above 4 µM in test [1] and 0.3 to 1 µM in test [2].

On to `CN1CCC(CNc2ccc(CNc3cc(CO)c4cnccc4c3)cn2)CC1` [Example 1211, (6-(((6-(((1-methylpiperidin-4-yl)methyl)amino)pyridin-3-yl)methyl)amino)isoquinolin-8-yl)methanol], for which the IC50 in test [1] and in test [2] was 10 to 40 µM in each case.

For the compound `Nc1ncc(Cl)c2cc(NCc3cnc(NCCC(=O)N4CCCC4)nc3)ccc12` [Example 1040, 3-[(5-{[(1-amino-4-chloroisoquinolin-6-yl)amino]methyl}pyrimidin-2-yl)amino]-1-(pyrrolidin-1-yl)propan-1-one], the values for the IC50 in test [1] and in test [2] were above 40 µM and 10 to 40 µM, respectively.

For the compound `Nc1nccc2c(NCc3ccc(NCCc4nccn4C(F)F)nc3)cccc12` [Example 1181, N5-((6-((2-(1-(difluoromethyl)-1H-imidazol-2-yl)ethyl)amino)pyridin-3-yl)methyl)isoquinoline-1,5-diamine], the figures for the concentration for half-maximal inhibition (IC50) in test [1] and in test [2] were above 40 µM and 10 to 40 µM, respectively.

Regarding `CN1CCC(OCc2ccc(CNc3ccc4cnc(N)cc4c3)cc2)CC1` [Example 2189, N6-(4-(((1-methylpiperidin-4-yl)oxy)methyl)benzyl)isoquinoline-3,6-diamine], the IC50 in test [1] and in test [2] was 10 to 40 µM each time.

In the case of `CN1CCC(COc2cc(CNc3cccc4c(N)ncc(F)c34)ccn2)CC1` [Example 4461, 4-fluoro-N5-((2-((1-methylpiperidin-4-yl)methoxy)pyridin-4-yl)methyl)isoquinoline-1,5-diamine], the IC50 in test [1] is above 40 µM; in test [2], 3 to 10 µM.

In the case of `CN1CCC(COc2cc(CNc3ccc(F)c4c(N)nccc34)ccn2)CC1` [Example 4469, 8-fluoro-N5-((2-((1-methylpiperidin-4-yl)methoxy)pyridin-4-yl)methyl)isoquinoline-1,5-diamine], the figures for the IC50 in test [1] and in test [2] were above 40 µM and 3 to 10 µM, respectively.

Consider `CC(C)N1CC2CCC(C1)C2COc1cc(CNc2cccc3c(N)nccc23)ccn1` (stereo not drawn) [Example 4297, N5-((2-((3-isopropyl-3-azabicyclo[3.2.1]octan-8-yl)methoxy)pyridin-4-yl)methyl)isoquinoline-1,5-diamine], for which the IC50 in test [1] is above 4 µM; in test [2], 0.1 to 0.3 µM.

In the case of `CN1CCC(CNc2ccc(CNc3ccc4cccnc4c3)cn2)CC1` [Example 1184, N-((6-(((1-methylpiperidin-4-yl)methyl)amino)pyridin-3-yl)methyl)quinolin-7-amine], the IC50 in test [1] is above 100 µM; in test [2], 10 to 40 µM.

On to `CN1CCC(CNc2ccc(CNc3cccc4c(N)ncc(F)c34)cn2)CC1` [Example 1194, 4-fluoro-N5-((6-(((1-methylpiperidin-4-yl)methyl)amino)pyridin-3-yl)methyl)isoquinoline-1,5-diamine], for which the IC50 is above 40 µM in test [1] and 3 to 10 µM in test [2].

In the case of `CN1CCC(COc2cc(CNc3cnc4c(N)nccc4c3)ccn2)CC1` [Example 4293, 3-N-({2-[(1-methylpiperidin-4-yl)methoxy]pyridin-4-yl}methyl)-1,7-naphthyridine-3,8-diamine], the IC50 was above 40 µM in test [1] and 0.3 to 1 µM in test [2].

Regarding `Nc1nccc2c(NCc3ccc(N4CCn5ccnc5C4CO)nc3)cccc12` (stereo not drawn) [Example 1140, (7-(5-(((1-aminoisoquinolin-5-yl)amino)methyl)pyridin-2-yl)-5,6,7,8-tetrahydroimidazo[1,2-a]pyrazin-8-yl)methanol], the half-maximal inhibitory concentration (IC50) in test [1] is above 40 µM; in test [2], 3 to 10 µM.

For `CN1CCC(CNc2ccc(CNc3cc(F)c4c(N)nccc4c3)cn2)CC1` [Example 1245, 8-fluoro-N6-((6-(((1-methylpiperidin-4-yl)methyl)amino)pyridin-3-yl)methyl)isoquinoline-1,6-diamine], the IC50 in test [1] and in test [2] was 3 to 10 µM each time.

For `Cc1n[nH]c2c1CCC2Nc1cc(CNc2ccc3c(N)ncc(Cl)c3c2)ccn1` (stereo not drawn) [Example 4440, 4-chloro-N6-((2-((3-methyl-1,4,5,6-tetrahydrocyclopenta[c]pyrazol-6-yl)amino)pyridin-4-yl)methyl)isoquinoline-1,6-diamine], the IC50 in test [1] was above 40 µM; in test [2] it was 10 to 40 µM.

As for `CN1CCC(CNc2ccc(CNc3ccn4ccnc4c3)cn2)CC1` [Example 1222, N-((6-(((1-methylpiperidin-4-yl)methyl)amino)pyridin-3-yl)methyl)imidazo[1,2-a]pyridin-7-amine], in test [1], the IC50 was above 40 µM.

With `COc1cccc2sc(NCc3ccc(NCC4CCN(C)CC4)nc3)nc12` [Example 1200, 4-methoxy-N-((6-(((1-methylpiperidin-4-yl)methyl)amino)pyridin-3-yl)methyl)benzo[d]thiazol-2-amine], the IC50 in test [1] is above 100 µM.

For `Nc1ncc(Cl)c2cc(NCc3ccnc(OCC4CCn5c(C(=O)O)cnc5C4)c3)ccc12` (stereo not drawn) [Example 4453, 7-(((4-(((1-amino-4-chloroisoquinolin-6-yl)amino)methyl)pyridin-2-yl)oxy)methyl)-5,6,7,8-tetrahydroimidazo[1,2-a]pyridine-3-carboxylic acid], the IC50 in test [1] was above 40 µM.

Take `CN1CCC(CNc2ccc(CNc3ccc(F)c4cnccc34)cn2)CC1` [Example 1214, 8-fluoro-N-((6-(((1-methylpiperidin-4-yl)methyl)amino)pyridin-3-yl)methyl)isoquinolin-5-amine]: the 50% inhibitory concentration (IC50) in test [1] was above 100 µM.

As to `Cc1cc2c(NCc3ccc(NCC4CCN(C)CC4)nc3)ccnc2n1C` [Example 1216, 1,2-dimethyl-N-((6-(((1-methylpiperidin-4-yl)methyl)amino)pyridin-3-yl)methyl)-1H-pyrrolo[2,3-b]pyridin-4-amine], the IC50 in test [1] was above 100 µM.

In the case of `CC(=O)c1cncc(NCc2ccnc(OCC3CCN(C)CC3)c2)c1` [Example 4455], in test [1], the concentration for half-maximal inhibition (IC50) is above 100 µM.

With `CN1CCC(CNc2ccc(CNc3ccc4[nH]cnc4c3F)cn2)CC1` [Example 1191, 4-fluoro-N-((6-(((1-methylpiperidin-4-yl)methyl)amino)pyridin-3-yl)methyl)-1H-benzo[d]imidazol-5-amine], the 50% inhibitory concentration (IC50) in test [1] is above 100 µM.

In the case of `CN1CCC(CNc2ccc(CNc3ccnc4c3CC(C)(C)N4)cn2)CC1` [Example 1257, 2,2-dimethyl-N-((6-(((1-methylpiperidin-4-yl)methyl)amino)pyridin-3-yl)methyl)-2,3-dihydro-1H-pyrrolo[2,3-b]pyridin-4-amine], the IC50 in test [1] is above 40 µM.

Regarding `CN1CCC(CNc2ccc(CNc3ncnc4[nH]ccc34)cn2)CC1` [Example 1227, N-((6-(((1-methylpiperidin-4-yl)methyl)amino)pyridin-3-yl)methyl)-7H-pyrrolo[2,3-d]pyrimidin-4-amine], in test [1], the IC50 is above 100 µM.
